# Data as given in patent US20240226017A1, “ERODIBLE TABLET” (Eli Lilly and Company, priority 2021, published 2024).
# Like-named read-outs stand apart in the source and are kept apart here. Marks after values point to notes of the source that are not given here.
# How the values were obtained:
# [1] = design: species or system cynomolgus monkeys; conditions: cynomolgus monkey, in vivo, po
# Procedure: High resolution liquid chromatography/mass spectrometry (HR-LC/MS) is used to measure the concentrations of Compound 2 in cynomolgus monkey plasma. Standards and controls are prepared in cynomolgus monkey plasma using Compound 2, and any dilutions required to bring samples into the quantitative range are also performed in control cynomolgus monkey plasma. To control assay variability, an IS is added to all the standards and samples.
# For Studies with Examples 14, 15, 16, 17, 18, 19: Compound 2 and the IS are extracted from monkey plasma (50 μL) by protein precipitation using isopropyl alcohol and methanol (50:50 v/v). The samples are then centrifuged (4000 rpm for 10 minutes) and the supernatant is transferred to a Siricco Protein Precipitation Plate. After centrifugation (4000 rpm for 20 minutes), the samples are loaded on a Sep-Pak tC18 SPE microelution plate that is conditioned with 2% formic acid in water. […]
# Pharmacokinetic (PK) parameters of Compound 2 are determined after a single 10-mg oral dose of Compound 2 in different formulations to male and female cynomolgus monkeys. […] Plasma concentrations of Compound 2 are detected through 504 hours post-dose.
# [2] = in vivo; design: species or system cynomolgus monkeys; conditions: male, cynomolgus monkey, iv
# Procedure: Plasma concentrations of Compound 1 are determined by a LC/MS method that measures intact Compound 1, peptide plus linked time extension. For each assay, Compound 1 and an IS, are extracted from 100% monkey plasma. This procedure involves initially thoroughly mixing the plasma sample (50 μl) with acetonitrile:water:formic acid (50:50:0.1; 25 μl) plus 2-propanol:methanol (50:50; 250 μl). Two distinct layers are formed upon centrifugation with Compound 1 and the IS contained in the supernatant layer. After moving 200-μL of the supernatant layer to the Sirocco Protein Precipitation plate, the plate is centrifuged (conditions). Next 600-μL of Water:Formic (100:2; 600 μl) are added to each well of the Sirocco plate, and the plate is vortexed, sealed, and centrifuged. After SPE plate conditioning, the sample from the Sirocco plate (700 μl) is transferred to a Waters, SPE plate, and centrifuged. The SPE plate, after washing, is eluted with acetonitrile:formic acid (100:2; 80 μl) into Invitrosol:water:water:formic acid 100:2 (35:15:50; 100 μl). The final sample (25 μl) is loaded onto a Waters, ACQUITY UPLC BEH C18 Column, 130 Å, (2.1 mm×100 mm, 1.7 μm). The column effluent is injected into a Sciex API 5500 mass spectrometer for detection and quantitation. Male cynomolgus monkeys are administered a single intravenous dose (0.05 mg/kg) or oral formulation (10 mg/tablet) of Compound 1. […]
# [3] = human, in vivo
# Procedure: A multiple-ascending dose study is conducted to study the safety, tolerability, and pharmacokinetics of erodible tablets containing Compound 2 administered as 3 consecutive, once-daily oral doses in healthy participants. Tablets are prepared having the composition set forth in Table 18 below using a direct compression process as described for Example 22 in Table 7 above. Average solid fraction of tablets was 0.90. The Compound 2 oral doses for this study are summarized in the following 4 “dose cohorts”: • Cohort 1, 4-mg dose: 1 tablet of 4 mg Compound 2+300 mg SNAC • Cohort 2, 8-mg dose:2 tablets of 4 mg Compound 2+300 mg SNAC • Cohort 3, 12-mg dose: 1 tablet of 12 mg Compound 2+300 mg SNAC • Cohort 4, 24-mg dose:2 tablets of 12 mg Compound 2+300 mg SNAC Sufficient participants are randomly assigned to study intervention to ensure approximately 10 evaluable participants (8 receiving Compound 2 and 2 receiving placebo) from each of 4 dose cohorts complete the study. In each cohort, eligible participants are randomly assigned to receive 3 once-daily doses of either Compound 2 or placebo. Data for the 4 cohorts are provided in Table 18 below, along with a comparison to IV data from a separate study having similar protocol design and conducted at the same clinical site.
# [4] = in vivo; design: species or system cynomolgus monkeys; conditions: cynomolgus monkey, iv
# Procedure: Plasma concentrations of Compound 2 are determined by a LC/MS method. Compound 2 and an internal standard (IS) are extracted from 100% monkey plasma (25 μL) using 50 mM ammonium bicarbonate. After centrifugation, the supernatant is transferred and 2B10 biotinylated antibody along with 5C9 biotinylated antibody (5 μL each) are added. The samples are then centrifuged, T1 Streptavidin beads are added (20 μL) for 30 minutes, and the analyte is eluted from the beads with 30% acetonitrile with 5% formic acid in water followed by mixing. A final sample (10 μL) containing 31% acetonitrile in 10% formic acid is loaded onto a Supelco Analytical Discovery BIO Wide Pore C5-3, 5 cm×0.1 mm for LC/MS analysis. The plasma PK of Compound 2 is evaluated in male cynomolgus monkeys following a single IV dose (50 nmol/kg). Blood samples are collected over 504 hours. Plasma is harvested from blood samples by centrifugation and stored frozen until analysis. Plasma concentrations of Compound 2 are detected through 504 hours post-dose. PK parameters for one animal are extrapolated using the concentration versus time data up to 72 hours post-dose.
smiles,measurement,setting,value
"CC[C@H](C)[C@H](NC(=O)[C@H](CC(C)C)NC(=O)[C@](C)(Cc1ccc(O)cc1)NC(=O)[C@@H](CCC(=O)O)NC(=O)[C@@H](NC(=O)[C@H](Cc1ccccc1)NC(=O)[C@H](CCC(=O)O)NC(=O)C(C)(C)NC(=O)[C@H](CCC(N)=O)NC(=O)[C@H](C)NC(=O)[C@H](CCCCNC(=O)COCCOCCNC(=O)COCCOCCNC(=O)CC[C@H](NC(=O)CCCCCCCCCCCCCCCCC(=O)O)C(=O)O)NC(=O)[C@H](CCCN)NC(=O)[C@H](CC(=O)O)NC(=O)[C@H](CC(C)C)NC(=O)[C@](C)(CC(C)C)NC(=O)[C@@H](NC(=O)[C@H](CO)NC(=O)[C@H](Cc1ccncc1)NC(=O)[C@H](CC(=O)O)NC(=O)[C@H](CO)NC(=O)[C@@H](NC(=O)[C@](C)(Cc1ccccc1F)NC(=O)[C@@H](NC(=O)CNC(=O)[C@H](CCC(=O)O)NC(=O)C(C)(C)NC(=O)[C@@H](N)Cc1ccc(O)cc1)[C@@H](C)O)[C@@H](C)O)[C@@H](C)CC)[C@@H](C)CC)C(=O)N[C@@H](CCC(=O)O)C(=O)NCC(=O)NCC(=O)N1CCC[C@H]1C(=O)N[C@@H](CO)C(=O)N[C@@H](CO)C(=O)NCC(=O)N[C@@H](C)C(=O)N1CCC[C@H]1C(=O)N1CCC[C@H]1C(=O)N1CCC[C@H]1C(=O)N[C@@H](CO)C(N)=O [Compound 2, Y-Aib-EGT-αMeF(2F)-TSD-4Pal-SI-αMeL-LD-Orn-K((2-[2-(2-Amino-ethoxy)-ethoxy]-acetyl)2-(γ-Glu)-CO-(CH2)16-CO2H)AQ-Aib-EFI-(D-Glu)-αMeY-LIEGGPSSGAPPPS-NH2]",Plasma concentrations detected through (post-dose),[1],504 h
same,clearance,[2]; CL,13 mL/day/kg
same,half-life,[2]; T1/2,96 h
same,Oral Bioavailability Based on AUC (0-168),[3]; 0.5 mg,100%
same,Oral Bioavailability Based on AUC (0-∞),[3]; 0.5 mg,100%
same,Dose-Normalized AUC(0-168),[3]; iv,22800^e ^ ng · h/mL · mg
same,Dose-Normalized AUC(0-∞),[3]; iv,49200^e ^ ng · h/mL · mg
same,Plasma concentrations detected through (post-dose),[4],504 h
same,AUC0-inf,"[4]; male, 50 nmol/kg",84.232 µM·h
same,AUC(0-inf),"[4]; male, 50 nmol/kg",84.2 µM·h
same,CL,"[4]; male, 50 nmol/kg",14.2 mL/day/kg
same,clearance,"[4]; male, 50 nmol/kg",14.2 mL/day/kg
same,Cmax,"[4]; male, 50 nmol/kg, Cmax",1050 nM
same,half-life,"[4]; male, 50 nmol/kg, T1/2",84 h
